Values of other authors, collected in paper PMC9475448, “What a difference a methylene makes: replacing Glu with Asp or Aad in the Lys-urea-Glu pharmacophore of PSMA-targeting radioligands to reduce kidney and salivary gland uptake” (Theranostics, 2022).

Experiments:
[1] = target: T1, PSMA (Homo sapiens, UniProt Q04609); parameters: method as in PMID 30097503; details: read-out: Ki (PSMA inhibitor); cited from earlier work
T1 construct: LNCaP cells (400,000/well) were plated onto a 24-well poly-D-lysine coated plate for 48 h; endogenous in cells; host or cells: LNCaP prostate cancer cells
T1 sequence (Q04609 whole entry): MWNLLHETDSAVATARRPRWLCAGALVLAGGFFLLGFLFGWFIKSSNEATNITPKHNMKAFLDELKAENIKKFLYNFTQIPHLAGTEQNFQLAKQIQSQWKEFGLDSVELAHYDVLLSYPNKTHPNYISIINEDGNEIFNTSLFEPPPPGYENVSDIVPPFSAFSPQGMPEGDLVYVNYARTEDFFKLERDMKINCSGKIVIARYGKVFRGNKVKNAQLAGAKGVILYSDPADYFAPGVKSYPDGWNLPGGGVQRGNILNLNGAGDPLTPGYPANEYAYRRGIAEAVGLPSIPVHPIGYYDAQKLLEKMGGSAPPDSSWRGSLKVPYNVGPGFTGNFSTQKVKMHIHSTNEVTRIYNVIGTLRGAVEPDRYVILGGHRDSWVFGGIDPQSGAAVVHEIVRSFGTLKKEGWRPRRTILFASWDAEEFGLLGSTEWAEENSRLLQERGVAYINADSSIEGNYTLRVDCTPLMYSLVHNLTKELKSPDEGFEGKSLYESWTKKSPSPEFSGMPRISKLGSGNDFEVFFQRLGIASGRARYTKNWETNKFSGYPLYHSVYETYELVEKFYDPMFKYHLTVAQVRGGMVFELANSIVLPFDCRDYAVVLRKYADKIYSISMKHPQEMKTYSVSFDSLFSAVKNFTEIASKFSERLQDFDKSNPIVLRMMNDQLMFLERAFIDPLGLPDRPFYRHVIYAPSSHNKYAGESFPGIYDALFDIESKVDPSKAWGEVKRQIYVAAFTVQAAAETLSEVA

[2] = test system: mouse model; details: up to 657 mg/kg; cited from earlier work

## N[C@@H](CCC(=O)O)C(=O)[O-].[Na+] [monosodium glutamate]
[1]
  Ki: 900 nM
[2]
  Effect of pretreatment on [68Ga]Ga-PSMA-11 uptake: reduced uptake of [^68Ga]Ga-PSMA-11 in salivary glands and kidneys but had no effect on tumor uptake
